In publication PMC10603063, “A quantitative method for determination of colistin E2 methanesulphonate in human plasma by ^15N-labeled colistin E2” (Scientific Reports, 2023):
Where two headings read alike, the source gives them in different places. Peptide text beside a SMILES is read from it.

Key:
[1] = for long-term storage stability: colistin E2-spiked samples, at least 93 days
Procedure: (§1) Referring to Zhou et al.[10], for each plasma sample, 100 µL of 5% ammonia was added to a mixture containing 100 µL of CMS E2 calibration plasma standards or QCs and 20 µL of 15 µg/ml IS solution. After vortexing, the mixtures were loaded onto WCX SPE plates. Before loading the sample, the WCX SPE plates were preconditioned with 1 ml methanol followed by 1 mL water to activate the extraction. The plate was sequentially washed with 1 mL of water, 1 mL of methanol, 1 mL of 70% ACN with 2% ammonia, and 1 ml 0.5% FA. Subsequently, 300 µL of 70% ACN with 6% FA was used to elute the analytes twice. Total eluents (600 µL) were collected with an SPE 96-Deep Square Well collection plate, mixed in a 96-well plate mixer, and analyzed by UHPLC-MS/MS.
(§2) The stability of colistin E2 was evaluated at two levels (low and high QCs).
(§3) The hydrolysis of CMS E2 is temperature dependent; the lower the temperature, the slower the hydrolysis rate. The samples were processed in ice water. Therefore, we studied their stability in ice-water. In the presence of CMS E2 (the spiked concentration was 50 times the concentration of colistin, which can cover the clinical samples), the stability of colistin E2 was also evaluated under the following conditions: on the bench top in ice water for 21 h, four freeze–thaw cycles, storage at − 20 ℃ and − 80 ℃ (at least 98 days), and storage of extracts at 4 ℃ in an auto-sampler for 22.5 h.
The method was used for the stability study, and all the following medicinal solutions and plasma samples were prepared and used in an ice water bath and stored at -20 °C after use.
2.6.4 Preparation of plasma quality control sample QC_mix for CMS E2/Colistin E2

[2] = system: Bordetella bronchitica ATCC4617; assay: Cylinder-plate potency method of the United States pharmacopoeia; format: cell-based
Text: In addition to at least 30 minor polymyxins with very similar physiochemical properties, colistin consists of colistin E1 and colistin E2 (Fig. 1)[6]. According to European Pharmacopoeia records, the components with the same molecular weight as colistin E1 are colistin E1-7MOA and E1-I, and colistin E2 is colistin E3, E2-I, and E1-Nva. In short, except for the principal components colistin E1 and E2, other components with similar physicochemical properties account for nearly 20% of colistin. These components could not be separated from colistin E1/E2 using mobile phases containing formic acid but were identified as a single peak of polymyxin E1/E2 by HPLC. This neglected problem actually brings some interferes with single component or colistin quantification. In the process of developing CMS, we successfully purified single components of colistin E1 and E2 with a purity of more than 99% by preparative HPLC using a specific salt mobile phase.

[3] = Procedure: as §1, §2, §3
[4] = stock solution in methanol: water (1: 1)
Procedure: as §2
The standard curve stock solution and the quality control stock solution for colistin E2 need to be prepared from different weighing. All solutions were kept at -20°C.
The colistin E2 reference was accurately weighed and dissolved with an appropriate amount of methanol: water (1: 1) to prepare a stock solution SS-A with a concentration of 3 mg/mL.

[5] = remark: listed apart in the source
Procedure: as §2
as §3, with “[…],” for “on the bench top in ice water for 21 h,”

Row | Compound | benchtop stability ([1]; colistin E2-spiked plasma, low and high QCs, without CMS E2, bench top in ice water for 24 h) | freeze–thaw stability ([1]; colistin E2-spiked plasma, low and high QCs, without CMS E2, four freeze–thaw cycles) | long-term storage stability ([1]; low and high QCs, −20 ℃) | long-term storage stability ([1]; low and high QCs, −80 ℃) | %Change, benchtop stability ([1]; human plasma (EDTA-K2) spiked with CMS E2 (50 times colistin concentration; QC_mix 24/0.48 µg/mL), 21 h in ice water, UHPLC-MS/MS) | %Change, long-term stability ([1]; human plasma spiked with CMS E2, 41 d in freezer (−20℃), UHPLC-MS/MS) | antibacterial activity (comparison of purified single components) ([2]; single components purified to more than 99% by preparative HPLC) | duration of stability in the auto-sampler ([3]; extracts after WCX SPE removal of CMS E2, auto-sampler (4℃)) | stability of extracts ([3]; extracts at 4 ℃ in an auto-sampler for 65.5 h, without CMS E2) | %Change, processed sample stability ([3]; sample extracts of matrix spiked with CMS E2, 22.5 h in an auto-sampler (4℃), UHPLC-MS/MS) | stability of stock solutions ([4]; stored at ambient for 21 h) | stability of stock solutions, long-term ([4]; −20 ℃ for at least 97 days) | percentage of change in blood spiked with CMS E2 ([5]; blood spiked with CMS E2, ice water for 60 min) | stability in fresh whole blood ([5]; fresh whole blood (EDTA-K2), bench top in ice water for 66 min, without CMS E2) | potency ([2]; cylinder-plate method, United States pharmacopoeia, test bacteria Bordetella bronchitica ATCC4617)
1 | CC(C)CCCCC(=O)N[C@@H](CCN)C(=O)N[C@H](C(=O)N[C@@H](CCN)C(=O)N[C@H]1CCNC(=O)[C@H]([C@@H](C)O)NC(=O)[C@H](CCN)NC(=O)[C@H](CCN)NC(=O)[C@H](CC(C)C)NC(=O)[C@@H](CC(C)C)NC(=O)[C@H](CCN)NC1=O)[C@@H](C)O [colistin E2] (HELM PEPTIDE1{[CC(C)CCCCC(=O)[*:2]].[Dab].T.[Dab].[Dab].[Dab].[dL].L.[Dab].[Dab].T}$PEPTIDE1,PEPTIDE1,5:R3-11:R2$$$V2.0) | no degradation | no degradation | no degradation | no degradation | 2.0% | 1.3% | higher than that of E1 | at least 22.5 h | no degradation | 4.4% | no degradation | no degradation | less than 15% | no degradation | –
2 | colistin E2 methanesulphonate [CMS E2] | – | – | – | – | – | – | – | – | – | – | – | – | – | – | 611 µg/mg
